Test results: patent US20140031227A1, “HERBICIDAL COMPOSITIONS COMPRISING 4-AMINO-3-CHLORO-5-FLUORO-6-(4-CHLORO-2-FLUORO-3-METHOXYPHENYL) PYRIDINE-2-CARBOXYLIC ACID OR A DERIVATIVE THEREOF AND GLYPHOSATE OR GLUFOSINATE” (DOW AGROSCIENCES LLC, priority 2012, published 2014)

Test system: SCPMA (Schoenoplectus maritimus (L.) Lye or Bolboschoenus maritimus (L.) Palla, sea clubrush)
Assay: Example II in-water applied mixtures, transplanted paddy rice weeds, greenhouse: SCPMA
Assay type: in vivo
Conditions: Compound A Acid alone
Procedure: Weed seeds or nutlets of the desired test plant species were planted in puddled soil (mud) prepared by mixing a shredded, non-sterilized mineral soil (50.5 percent silt, 25.5 percent clay, and 24 percent sand, with a pH of about 7.6 and an organic matter content of about 2.9 percent) and water at a 1:1 volumetric ratio. The prepared mud was dispensed in 365 mL aliquots into 16-ounce (oz.) non-perforated plastic pots with a surface area of 86.59 square centimeters (cm^2) leaving a headspace of 3 centimeters (cm) in each pot. Mud was allowed to dry overnight prior to planting or transplanting. Rice seeds were planted in Sun Gro MetroMix® 306 planting mixture, which typically has a pH of 6.0 to 6.8 and an organic matter content of about 30 percent, in plastic plug trays. Seedlings at the second or third leaf stage of growth were transplanted into 840 mL of mud contained in 32-oz. non-perforated plastic pots with a surface area of 86.59 cm^2 4 days prior to herbicide application. The paddy was created by filling the headspace of the pots with 2.5 to 3 cm of water. […] The plants were grown for 4-22 days in a greenhouse with an approximate 14 hr photoperiod which was maintained at about 29′C during the day and 26° C. during the night. Nutrients were added as Osmocote® (19:6:12, N:P:K+minor nutrients) at 2 g per 16-oz. pot and 4 g per 32-oz. pot. Water was added on a regular basis to maintain the paddy flood, and supplemental lighting was provided with overhead metal halide 1000-Watt lamps as necessary. The plants were employed for testing when they reached the first through fourth true leaf stage.
Treatments consisted of the acid or esters of 4-amino-3-chloro-5-fluoro-6-(4-chloro-2-fluoro-3-methoxy-phenyl)pyridine-2-carboxylic acid (compound A) each formulated as an SC (suspension concentrate) and various herbicidal components alone and in combination. Forms of compound A were applied on an acid equivalent basis.
For formulated compounds, a measured amount was placed in an individual 100 or 200 mL glass vial and was dissolved in a volume of 1.25% (v/v) Agri-Dex® crop oil concentrate to obtain application solutions.
Applications were made by injecting with a pipetter appropriate amounts of the application solutions, individually and sequentially, into the aqueous layer of the paddy. Control plants were treated in the same manner with the solvent blank. Applications were made so that all treated plant material received the same concentrations of acetone and crop oil concentrate.
The treated plants and control plants were placed in a greenhouse as described above and water was added as needed to maintain a paddy flood. After approximately 3 weeks the condition of the test plants as compared with that of the untreated plants was determined visually and scored on a scale of 0 to 100 percent where 0 corresponds to no injury or growth inhibition and 100 corresponds to complete kill.
Colby's equation was used to determine the herbicidal effects expected from the mixtures (Colby, S. R. 1967. Calculation of the synergistic and antagonistic response of herbicide combinations. Weeds 15:20-22.).

Measured: Visual Weed Control (%) - 21 DAA SCPMA Obs

COc1c(Cl)ccc(-c2nc(C(=O)O)c(Cl)c(N)c2F)c1F [Compound A Acid, 4-amino-3-chloro-6-(4-chloro-2-fluoro-3-methoxyphenyl)-5-fluoropyridine-2-carboxylic acid]
0%: 8.75 gae/ha | 17.5 gae/ha | 35 gae/ha
